Data as given in ChEMBL document CHEMBL6109038, “Discovery of potent dihydro-oxazinoquinolinone inhibitors of GuaB for the treatment of tuberculosis” (Bioorg Med Chem Lett, 2025).
Values after ≈ are worked out from the molar mass of the structure shown.

What was measured:
[1] = test system: Mycobacterium tuberculosis; experiment: Antitubercular activity against Mycobacterium tuberculosis assessed as inhibition of bacterial growth; assay type: functional
[2] = test system: Mycobacterium tuberculosis; experiment: Antitubercular activity against Mycobacterium tuberculosis H37RvMA assessed as inhibition of bacterial growth by Alamar blue dye based broth microdilution method; assay type: functional
[3] = test system: Mycobacterium tuberculosis; experiment: Antitubercular activity against Mycobacterium tuberculosis H37Ra assessed as inhibition of bacterial growth; assay type: functional
[4] = Clearance in human liver microsomes; assay type: ADME, Microsome
Cytochrome P450 3A4 [5] = target: T1, Cytochrome P450 3A4 (Homo sapiens, UniProt P08684); experiment: Inhibition of CYP3A4 (unknown origin) using testosterone as substrate; assay type: ADME
T1 sequence (P08684 whole entry): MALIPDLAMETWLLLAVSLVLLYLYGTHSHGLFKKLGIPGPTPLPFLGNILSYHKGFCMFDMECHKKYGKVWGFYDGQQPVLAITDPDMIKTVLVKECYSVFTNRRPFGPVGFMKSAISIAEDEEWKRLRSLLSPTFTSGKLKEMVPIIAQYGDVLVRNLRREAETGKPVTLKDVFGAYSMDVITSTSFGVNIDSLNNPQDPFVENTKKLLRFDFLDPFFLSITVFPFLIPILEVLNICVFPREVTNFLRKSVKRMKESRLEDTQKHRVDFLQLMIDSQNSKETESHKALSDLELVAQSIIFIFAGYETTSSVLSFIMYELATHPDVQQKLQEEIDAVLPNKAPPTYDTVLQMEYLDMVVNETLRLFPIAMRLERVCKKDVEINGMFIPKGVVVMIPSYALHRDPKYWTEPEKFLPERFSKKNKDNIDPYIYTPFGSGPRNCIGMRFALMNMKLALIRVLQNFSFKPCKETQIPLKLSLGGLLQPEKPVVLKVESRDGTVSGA

[6] = Clearance in mouse; assay type: ADME, organism-based; conditions: in vivo
Cytochrome P450 3A4 [7] = target: T1, Cytochrome P450 3A4; experiment: Inhibition of CYP3A4 (unknown origin); assay type: ADME
Cytochrome P450 1A2 = target: T2, Cytochrome P450 1A2 (Homo sapiens, UniProt P05177); experiment: Inhibition of CYP1A2 (unknown origin); assay type: ADME
T2 sequence (P05177 whole entry): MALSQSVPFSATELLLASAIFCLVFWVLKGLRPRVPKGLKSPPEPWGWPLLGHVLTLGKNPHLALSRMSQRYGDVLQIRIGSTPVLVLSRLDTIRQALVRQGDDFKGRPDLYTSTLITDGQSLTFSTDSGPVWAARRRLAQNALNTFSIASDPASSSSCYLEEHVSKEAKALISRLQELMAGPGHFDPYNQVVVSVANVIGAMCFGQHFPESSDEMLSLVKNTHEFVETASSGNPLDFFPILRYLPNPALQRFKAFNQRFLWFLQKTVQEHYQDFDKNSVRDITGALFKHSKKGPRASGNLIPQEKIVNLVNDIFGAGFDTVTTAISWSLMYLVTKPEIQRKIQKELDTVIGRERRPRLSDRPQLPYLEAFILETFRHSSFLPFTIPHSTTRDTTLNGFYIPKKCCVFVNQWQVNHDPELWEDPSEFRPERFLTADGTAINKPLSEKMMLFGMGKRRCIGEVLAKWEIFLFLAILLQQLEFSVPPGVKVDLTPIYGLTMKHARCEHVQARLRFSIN

Cytochrome P450 2C8 = target: T3, Cytochrome P450 2C8 (Homo sapiens, UniProt P10632); experiment: Inhibition of CYP2C8 (unknown origin); assay type: ADME
T3 sequence (P10632 whole entry): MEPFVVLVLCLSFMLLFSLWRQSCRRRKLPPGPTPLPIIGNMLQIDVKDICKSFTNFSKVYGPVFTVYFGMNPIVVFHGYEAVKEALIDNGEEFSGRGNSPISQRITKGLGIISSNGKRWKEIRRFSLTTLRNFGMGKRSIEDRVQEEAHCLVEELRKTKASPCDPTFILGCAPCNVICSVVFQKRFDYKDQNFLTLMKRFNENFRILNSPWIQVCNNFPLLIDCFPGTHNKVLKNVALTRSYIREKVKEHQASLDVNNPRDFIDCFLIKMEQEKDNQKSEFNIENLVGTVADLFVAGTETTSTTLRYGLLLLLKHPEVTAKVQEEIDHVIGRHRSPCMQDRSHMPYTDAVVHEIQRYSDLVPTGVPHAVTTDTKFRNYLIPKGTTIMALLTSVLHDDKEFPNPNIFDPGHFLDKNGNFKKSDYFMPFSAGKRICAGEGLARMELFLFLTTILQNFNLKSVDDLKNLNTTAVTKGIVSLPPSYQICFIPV

Cytochrome P450 2D6 = Cytochrome P450 2D6 (Homo sapiens, UniProt P10635); experiment: Inhibition of CYP2D6 (unknown origin); assay type: ADME
Sequence of Cytochrome P450 2D6 (P10635 whole entry): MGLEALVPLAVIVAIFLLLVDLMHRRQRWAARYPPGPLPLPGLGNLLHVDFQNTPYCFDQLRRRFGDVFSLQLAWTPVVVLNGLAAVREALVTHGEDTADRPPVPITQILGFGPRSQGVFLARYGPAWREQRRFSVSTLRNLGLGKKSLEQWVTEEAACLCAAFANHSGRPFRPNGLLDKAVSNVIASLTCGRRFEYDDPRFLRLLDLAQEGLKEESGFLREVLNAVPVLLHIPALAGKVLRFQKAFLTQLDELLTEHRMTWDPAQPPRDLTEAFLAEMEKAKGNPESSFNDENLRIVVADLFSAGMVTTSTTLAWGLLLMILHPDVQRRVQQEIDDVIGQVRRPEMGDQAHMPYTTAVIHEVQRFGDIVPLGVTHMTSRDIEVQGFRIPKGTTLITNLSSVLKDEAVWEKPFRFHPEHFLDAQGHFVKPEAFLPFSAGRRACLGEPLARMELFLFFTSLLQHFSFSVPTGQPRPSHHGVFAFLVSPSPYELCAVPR

[8] = Lipophilicity, logD of the compound measured at pH 7.4; assay type: physicochemical; conditions: buffer
hERG = hERG (Homo sapiens, UniProt Q12809); experiment: Inhibition of hERG at 10 uM relative to control; assay type: toxicity
Sequence of hERG (Q12809 whole entry): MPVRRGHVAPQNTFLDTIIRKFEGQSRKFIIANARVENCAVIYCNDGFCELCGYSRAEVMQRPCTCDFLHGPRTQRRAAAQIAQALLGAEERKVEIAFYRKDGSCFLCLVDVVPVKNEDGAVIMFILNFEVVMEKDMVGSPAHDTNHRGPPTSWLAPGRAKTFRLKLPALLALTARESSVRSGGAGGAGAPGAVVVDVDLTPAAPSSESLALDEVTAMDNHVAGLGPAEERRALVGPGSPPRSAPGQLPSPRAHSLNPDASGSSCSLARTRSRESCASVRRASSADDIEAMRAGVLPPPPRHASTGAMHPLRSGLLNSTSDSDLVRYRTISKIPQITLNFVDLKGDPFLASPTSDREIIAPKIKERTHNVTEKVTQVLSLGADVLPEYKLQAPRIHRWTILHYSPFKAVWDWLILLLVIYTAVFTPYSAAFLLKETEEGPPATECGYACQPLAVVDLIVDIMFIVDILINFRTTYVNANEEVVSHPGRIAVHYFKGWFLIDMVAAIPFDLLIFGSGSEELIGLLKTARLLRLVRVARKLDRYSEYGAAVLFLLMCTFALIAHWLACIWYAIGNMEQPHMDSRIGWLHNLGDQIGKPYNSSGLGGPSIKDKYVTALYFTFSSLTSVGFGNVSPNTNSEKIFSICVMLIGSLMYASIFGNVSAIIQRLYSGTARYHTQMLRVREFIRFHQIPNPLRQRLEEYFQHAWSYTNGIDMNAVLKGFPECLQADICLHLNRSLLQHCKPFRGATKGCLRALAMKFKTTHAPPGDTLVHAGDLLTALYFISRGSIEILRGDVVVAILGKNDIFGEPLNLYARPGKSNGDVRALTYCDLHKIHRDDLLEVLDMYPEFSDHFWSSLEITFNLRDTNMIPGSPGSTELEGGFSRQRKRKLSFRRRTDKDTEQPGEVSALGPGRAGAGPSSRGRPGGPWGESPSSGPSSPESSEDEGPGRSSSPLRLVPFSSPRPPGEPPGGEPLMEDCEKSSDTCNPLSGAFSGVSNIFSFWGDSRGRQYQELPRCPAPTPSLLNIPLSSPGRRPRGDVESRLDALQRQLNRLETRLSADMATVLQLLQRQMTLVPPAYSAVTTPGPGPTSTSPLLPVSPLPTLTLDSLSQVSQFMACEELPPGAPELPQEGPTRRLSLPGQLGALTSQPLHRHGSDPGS

[9] = Oral bioavailability in mouse; assay type: ADME, organism-based; conditions: in vivo
[10] = target: Inosine-5'-monophosphate dehydrogenase (Mycobacterium tuberculosis (strain ATCC 25618 / H37Rv), UniProt P9WKI7); experiment: Inhibition of Mycobacterium tuberculosis GuaB
Sequence of Inosine-5'-monophosphate dehydrogenase (P9WKI7 whole entry): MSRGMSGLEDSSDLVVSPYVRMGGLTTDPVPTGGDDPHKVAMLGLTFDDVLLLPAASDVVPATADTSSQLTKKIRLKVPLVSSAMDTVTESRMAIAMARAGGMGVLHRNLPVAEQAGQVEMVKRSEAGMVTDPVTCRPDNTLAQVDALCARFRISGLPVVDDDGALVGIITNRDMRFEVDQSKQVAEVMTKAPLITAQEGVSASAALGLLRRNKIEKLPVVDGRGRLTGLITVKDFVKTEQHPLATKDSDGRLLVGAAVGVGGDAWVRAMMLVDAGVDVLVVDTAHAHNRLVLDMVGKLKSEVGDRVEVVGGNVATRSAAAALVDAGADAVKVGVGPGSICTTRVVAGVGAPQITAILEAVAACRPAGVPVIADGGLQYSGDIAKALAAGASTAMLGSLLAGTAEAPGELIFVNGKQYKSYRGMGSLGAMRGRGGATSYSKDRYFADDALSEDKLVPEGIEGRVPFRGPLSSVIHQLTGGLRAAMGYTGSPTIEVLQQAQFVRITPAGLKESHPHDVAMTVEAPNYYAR

IMPDH = experiment: Inhibition of human IMPDH; assay type: toxicity
[11] = Cytotoxicity against human primary hepatocytes in presence of serum; assay type: toxicity, cell-based, Hepatocyte
[12] = Cytotoxicity against human primary hepatocytes in absence of serum; assay type: toxicity, cell-based, Hepatocyte
[13] = test system: Mycobacterium tuberculosis; experiment: Antitubercular activity against Mycobacterium tuberculosis H37Rv assessed as inhibition of bacterial growth; assay type: functional
Cytochrome P450 2C9 = Cytochrome P450 2C9 (Homo sapiens, UniProt P11712); experiment: Inhibition of CYP2C9 (unknown origin); assay type: ADME
Sequence of Cytochrome P450 2C9 (P11712 whole entry): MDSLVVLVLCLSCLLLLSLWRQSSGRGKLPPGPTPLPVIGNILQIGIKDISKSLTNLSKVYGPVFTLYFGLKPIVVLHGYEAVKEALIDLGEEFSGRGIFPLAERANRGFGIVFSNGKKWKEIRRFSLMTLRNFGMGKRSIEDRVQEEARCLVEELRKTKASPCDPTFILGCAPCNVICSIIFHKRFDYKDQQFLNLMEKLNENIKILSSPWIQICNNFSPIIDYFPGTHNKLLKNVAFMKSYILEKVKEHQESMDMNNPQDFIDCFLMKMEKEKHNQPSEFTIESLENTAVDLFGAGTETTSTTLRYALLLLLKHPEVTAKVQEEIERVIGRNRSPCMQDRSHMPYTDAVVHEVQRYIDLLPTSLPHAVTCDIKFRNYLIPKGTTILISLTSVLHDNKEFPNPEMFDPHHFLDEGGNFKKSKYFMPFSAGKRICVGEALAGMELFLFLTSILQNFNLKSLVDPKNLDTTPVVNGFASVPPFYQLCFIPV

[14] = test system: Mycobacterium tuberculosis; experiment: Antitubercular activity against Mycobacterium tuberculosis ATCC 27294 assessed as inhibition of bacterial growth measured after 1 week by broth microdilution method; assay type: functional; conditions: ATCC 27294, 168 h, time 1 weeks

For `Cc1n[nH]c(C)c1S(=O)(=O)Nc1ccc2c[nH]nc2c1`, the MIC [1] was 2 µM (≈ 0.583 µg/mL).
`O=C(C1CCCCC1)N1CCN(S(=O)(=O)c2cccc3cnccc23)CC1` gave an MIC [2] of 2 µM (≈ 0.775 µg/mL).
Molecule `C[C@@H](Oc1ccc(-c2ccn[nH]2)cc1)c1cncc(-c2nc(Cl)c[nH]2)c1` has an MIC [3] of 0.11 µM (≈ 0.0402 µg/mL), a CLhep predicted [4] of 12 mL/min/kg and an IC50 (Cytochrome P450 3A4 [5]) of 0.24 µM.
In the case of `C[C@@H](Oc1ccc2c(=O)cc3n(c2c1)CCOC3)c1cc(-n2ccc(Cl)n2)cnn1`, the MIC [3] is reported as 0.26 µM (≈ 0.11 µg/mL), the CLhep predicted [4] is reported as 5.3 mL/min/kg and the clearance [6] is reported as 35 mL/min/kg. The IC50 (Cytochrome P450 3A4 [7]) was > 10 µM, the IC50 (Cytochrome P450 1A2) was > 10 µM and the IC50 (Cytochrome P450 2C8) was > 10 µM. For the same molecule, the IC50 (Cytochrome P450 2D6) was > 10 µM, the IC50 (Cytochrome P450 3A4 [5]) was > 10 µM and the logD [8] was 2.3. The inhibition at 10 µM (hERG) was 28%, the bioavailability [9] was 5.2% and the IC50 [10] was 0.0017 µM. For the same molecule, the IC50 (IMPDH) was > 50 µM, the IC50 [11] was > 100 µM and the IC50 [12] was > 100 µM.
For `C[C@@H](Oc1ccc2ncc3c(c2c1)CCOC3)c1cncc(-c2nc(Cl)c[nH]2)c1`, the MIC [3] was < 0.003 µM, the MIC [13] was 0.039 µM (≈ 0.0159 µg/mL) and the CLhep predicted [4] was 19 mL/min/kg. The IC50 (Cytochrome P450 3A4 [7]) was < 10 µM, the IC50 (Cytochrome P450 1A2) was < 10 µM and the IC50 (Cytochrome P450 2C8) was < 10 µM. For the same molecule, the IC50 (Cytochrome P450 2C9) was < 10 µM, the IC50 (Cytochrome P450 2D6) was < 10 µM and the IC50 (Cytochrome P450 3A4 [5]) was 0.57 µM.
For `C[C@@H](Oc1ccc2c(=O)cc3n(c2c1)CCOC3)c1cncc(-c2nc(C(F)(F)F)c[nH]2)c1`, the MIC [3] was 0.099 µM (≈ 0.0452 µg/mL), the CLhep predicted [4] was 16 mL/min/kg and the IC50 (Cytochrome P450 3A4 [5]) was 4.3 µM. It also gave a logD [8] of 3.
`C/C(=N/O)c1cccc(C(C)(C)NC(=O)Nc2ccc(Cl)c(C(=O)N(C)C)c2)c1` showed an MIC [14] of 16 µM (≈ 6.67 µg/mL).
In the case of `C[C@@H](Oc1ccc2c(=O)cc3n(c2c1)CCOC3)c1cncc(-c2nc(C#N)c[nH]2)c1`, the MIC [3] is reported as 0.39 µM (≈ 0.161 µg/mL), the CLhep predicted [4] is reported as 5.5 mL/min/kg and the IC50 (Cytochrome P450 3A4 [5]) is reported as > 10 µM. For the same molecule, the logD [8] was 2.1.
For `C[C@@H](Oc1cccc(-c2ccn[nH]2)c1)c1cncc(-c2nc(Cl)c[nH]2)c1`, the MIC [3] was 3.1 µM (≈ 1.13 µg/mL), the CLhep predicted [4] was 16 mL/min/kg and the IC50 (Cytochrome P450 3A4 [5]) was 0.32 µM.
For `C[C@@H](Oc1cc(-c2ccn[nH]2)cc(N2CCOCC2)c1)c1cncc(-c2nc(Cl)c[nH]2)c1`, the MIC [3] was 0.18 µM (≈ 0.0812 µg/mL) and the CLhep predicted [4] was 16 mL/min/kg.
`C[C@@H](Oc1ccc2c(=O)cc3n(c2c1)CCOC3)c1cncc(-n2ccc(C#N)n2)c1` gave an MIC [3] of 0.18 µM (≈ 0.0744 µg/mL), a CLhep predicted [4] of 11 mL/min/kg and a logD [8] of 1.7.
In the case of `C[C@H](Nc1ccc2ncc3c(c2c1)CCOC3)C(=O)Nc1ccc(Cl)nc1`, the MIC [3] is reported as 0.035 µM (≈ 0.0134 µg/mL), the MIC [13] is reported as 0.058 µM (≈ 0.0222 µg/mL) and the CLhep predicted [4] is reported as 16 mL/min/kg. It also gave a clearance [6] of 132 mL/min/kg.
In the case of `C[C@@H](Oc1ccc2c(=O)cc3n(c2c1)CCOC3)c1cc(-n2ccc(C(F)(F)F)n2)cnn1`, the MIC [3] is reported as 0.58 µM (≈ 0.265 µg/mL), the CLhep predicted [4] is reported as 7 mL/min/kg and the IC50 (Cytochrome P450 3A4 [5]) is reported as > 10 µM. The logD [8] was 2.1.
With `C[C@@H](Oc1ccc2c(=O)cc3n(c2c1)CCOC3)c1cncc(-n2ccc(Cl)n2)c1` the MIC [3] was 0.091 µM (≈ 0.0385 µg/mL), the CLhep predicted [4] was 16 mL/min/kg and the IC50 (Cytochrome P450 3A4 [5]) was > 10 µM. The logD [8] was 2.8.
With `C[C@@H](Oc1ccc2c(=O)cc3n(c2c1)CCOC3)c1cc(-n2ccc(OC(F)F)n2)cnn1` the MIC [3] was 0.29 µM (≈ 0.132 µg/mL), the CLhep predicted [4] was < 3.9 mL/min/kg and the IC50 (Cytochrome P450 3A4 [5]) was > 10 µM. For the same molecule, the logD [8] was 1.6 and the inhibition at 10 µM (hERG) was 70%.
Molecule `C[C@@H](Oc1ccc2ncc(CO)cc2c1)c1cncc(-c2nc(Cl)c[nH]2)c1` has an MIC [3] of 0.007 µM (≈ 0.00267 µg/mL), a CLhep predicted [4] of 12 mL/min/kg and an IC50 (Cytochrome P450 3A4 [5]) of 2.1 µM.
For `C[C@@H](Oc1ccc2c(=O)cc3n(c2c1)CCOC3)c1cncc(-n2ccc(C(F)(F)F)n2)c1`, the MIC [3] was 0.29 µM (≈ 0.132 µg/mL), the CLhep predicted [4] was 18 mL/min/kg and the IC50 (Cytochrome P450 3A4 [5]) was > 10 µM. It also gave a logD [8] of 3.1.
`CC(Oc1ccc2c(=O)cc3n(c2c1)CCOC3)c1cncc(-c2nc(Cl)c[nH]2)c1` (racemic) gave an MIC [3] of 0.12 µM (≈ 0.0507 µg/mL), a CLhep predicted [4] of 13 mL/min/kg and an IC50 (Cytochrome P450 3A4 [5]) of 3.7 µM. For the same molecule, the logD [8] was 2.2.
